Converted amounts (≈) assume the structure as drawn. Like-named read-outs stand apart in the source and are kept apart here. Where a SMILES comes first, the peptide text is derived from it. Bridges are numbered along the chain shown (N, C = ends). [ ]: non-standard residue; d: D form. The star is where a group is joined. X1 = CC[C@H](C)CCCCC(=O)*; Dab = NCC[C@H](N)C(=O)O
Key:
C. freundii = experiment: Susceptibility of clinical isolates (VITEK 2; MIC by broth dilution on microplate); assay type: cell-based; details: n = 1, unfavorable outcome
Source text: (§1) The bacterial isolates were recovered in MacConkey agar (Oxoid-Thermo Scientific®, Hampshire, UK) and sent to the Bacterial Molecular Genetics Laboratory in AMIES transport media (COPAN). […] The MICs of meropenem, amikacin, and colistin were established by the broth dilution method on a microplate. E. coli ATCC® 25922^TM and P. aeruginosa ATCC® 27853^TM strains was used as a susceptibility control (American Type Culture Collection). Finally, the carbapenemase genes blaIMP, blaOXA-48, blaVIM, blaGES, blaKPC, and blaNDM were assessed by multiplex PCR [45].

K. pneumoniae = experiment: as above; assay type: cell-based, Klebsiella pneumoniae; details: for MIC: Klebsiella pneumoniae, broth dilution, read-out: highest MIC
Source text: as §1

P. putida = experiment: as above; assay type: cell-based, Pseudomonas putida
Source text: as §1

E. cloacae = experiment: as above; assay type: cell-based, Enterobacter cloacae; details: for isolates I (intermediate), n (%) / isolates R (resistant), n (%) / isolates S (susceptible), n (%): n = 1, favorable outcome
Source text: as §1

P. aeruginosa = experiment: as above; assay type: cell-based, Pseudomonas aeruginosa; details: for MIC: Pseudomonas aeruginosa, broth dilution
Source text: as §1

A. baumannii = experiment: as above; assay type: cell-based, Acinetobacter baumannii; details: for isolates I (intermediate), n (%) / isolates R (resistant), n (%) / isolates S (susceptible), n (%): n = 1, favorable outcome; for MIC: Acinetobacter baumannii, broth dilution, one isolate
Source text: as §1

E. coli = experiment: as above; assay type: cell-based, Escherichia coli; details: n = 1, favorable outcome
Source text: as §1

clinical = details: human, in vivo, plasma Cmin, fourth day of treatment, HPLC-UV, median (IQR), read-out: Colistin levels, Median, IQR
Procedure: The doses were prescribed by the treating physician based on the institution’s drug-therapeutic guidelines (load of 1 mg/kg and maintenance of 3 mg/kg per day, divided into three doses). Measurement of the colistin concentration in plasma was performed on the fourth day of treatment, when it was assumed that the colistin concentrations would have reached a steady state. Colistin plasma concentrations (Cmin) were measured just before CMS administration. Cmin was chosen because it is more convenient from a practical point of view. Clinical outcomes were classified as (a) favorable (absence of fever (T < 38 °C); leukocytosis <12,000; not requiring vasopressors; in infections in which control cultures could be obtained, these cultures must be sterile within 7 days of treatment and without changes in the initial antimicrobial regimen within of the first 7 days of treatment. In addition, mortality at 30 days was measured as a secondary outcome; or (b) unfavorable (in the case of fever > 38 °C; leukocytosis > 12,000; requirement for a vasopressor or the presence of positive control cultures for the initial microorganism). The clinical outcomes were determined by consensus of at least two physicians on the study team. If all the criteria were met, the patient was assigned as having a favorable outcome; if one criterion was not met, the outcome was considered not favorable. […]

[1] = system: multiresistant Gram-negative carbapenemase-producing bacteria; experiment: Clinical outcome at day 7 and 30-day mortality in patients treated with CMS; assay type: in vivo, human
Procedure: This prospective observational study was conducted from September 2017 and June 2020 at a university clinic in the Hospitalization and Critical Care services. The participation of patients in the study was according to the proposed inclusion criteria. Patients over 18 years old, hospitalized for infections caused by multiresistant Gram-negative carbapenemase-producing bacteria, diagnosed in hospital at the clinic of the University of La Sabana, who had been treated with CMS for at least 7 days at the institution, were included. […] Detailed demographic (age, sex, weight), clinical (site of infection, severity of disease, comorbidities (Charlson comorbidity index), CMS loading dose, CMS maintenance dose, duration of treatment, days of stay in the hospital, mortality, carbapenemase class, concomitant antibiotic therapy), laboratory (hemoglobin, red blood cell, neutrophil and platelet counts, serum creatinine and glomerular filtration rate (GFR)), and microbiological (bacterial isolation and characterization) data from each patient were recorded.
The doses were prescribed by the treating physician based on the institution’s drug-therapeutic guidelines (load of 1 mg/kg and maintenance of 3 mg/kg per day, divided into three doses). Measurement of the colistin concentration in plasma was performed on the fourth day of treatment, when it was assumed that the colistin concentrations would have reached a steady state. Colistin plasma concentrations (Cmin) were measured just before CMS administration. Cmin was chosen because it is more convenient from a practical point of view. Clinical outcomes were classified as (a) favorable (absence of fever (T < 38 °C); leukocytosis <12,000; not requiring vasopressors; in infections in which control cultures could be obtained, these cultures must be sterile within 7 days of treatment and without changes in the initial antimicrobial regimen within of the first 7 days of treatment. In addition, mortality at 30 days was measured as a secondary outcome; or (b) unfavorable (in the case of fever > 38 °C; leukocytosis > 12,000; requirement for a vasopressor or the presence of positive control cultures for the initial microorganism). The clinical outcomes were determined by consensus of at least two physicians on the study team. If all the criteria were met, the patient was assigned as having a favorable outcome; if one criterion was not met, the outcome was considered not favorable.

[2] = Acute kidney injury / renal failure (serum creatinine increase above 0.3 mg/dl in 48 h) by colistin level; assay type: in vivo, human; details: high colistin levels n = 2
Procedure: Regarding the incidence of renal failure, defined as an increase in serum creatinine above 0.3 mg/dl in 48 h, this occurred in 20.7% of patients with low colistin levels, in 50% of patients with normal colistin levels, and in 50% of patients with high colistin levels (Table 5).

[3] = cited from earlier work
Source text: Colistin has been clinically available since the 1950s, but it soon fell into disuse, mainly due to its nephrotoxic potential. Alongside its nephrotoxicity, which ranges between 0 and 58% in different studies, some evidence has found the incidence of peripheral neuropathy may be up to 50% with its use, as the main manifestation of neurotoxicity. The lack of other available options has increased the use of colistin in MDR infections, even with its safety profile. The pharmacokinetics of colistin are complex. Colistin is available as a sulfate and as sodium colis ...

[4] = isolates from patients with favorable outcome n = 10
[5] = isolates from patients with unfavorable outcome n = 14

Molecule | isolates I (intermediate), n (%) (C. freundii) | isolates R (resistant), n (%) (C. freundii) | isolates S (susceptible), n (%) (C. freundii) | isolates I (intermediate), n (%) (K. pneumoniae; favorable outcome n = 3) | isolates R (resistant), n (%) (K. pneumoniae; favorable outcome n = 3) | isolates S (susceptible), n (%) (K. pneumoniae; favorable outcome n = 3) | isolates I (intermediate), n (%) (K. pneumoniae; unfavorable outcome n = 2) | isolates R (resistant), n (%) (K. pneumoniae; unfavorable outcome n = 2) | isolates S (susceptible), n (%) (K. pneumoniae; unfavorable outcome n = 2) | isolates I (intermediate), n (%) (P. putida; favorable outcome n = 1) | isolates R (resistant), n (%) (P. putida; favorable outcome n = 1) | isolates S (susceptible), n (%) (P. putida; favorable outcome n = 1) | isolates I (intermediate), n (%) (P. putida; unfavorable outcome n = 1) | isolates R (resistant), n (%) (P. putida; unfavorable outcome n = 1) | isolates S (susceptible), n (%) (P. putida; unfavorable outcome n = 1) | isolates I (intermediate), n (%) (E. cloacae) | isolates R (resistant), n (%) (E. cloacae) | isolates S (susceptible), n (%) (E. cloacae) | isolates I (intermediate), n (%) (P. aeruginosa; [4]) | isolates R (resistant), n (%) (P. aeruginosa; [4]) | further results
CN(C)c1cc(NC(=O)CNC(C)(C)C)c(O)c2c1C[C@H]1C[C@H]3[C@H](N(C)C)C(O)=C(C(N)=O)C(=O)[C@@]3(O)C(O)=C1C2=O [Glycylcyclines, tigecycline] | 1 (100) n (%) | 0 (0) n (%) | 0 (0) n (%) | 0 (0) n (%) | 0 (0) n (%) | 1 (33.3) n (%) | 0 (0) n (%) | 0 (0) n (%) | 2 (100) n (%) | 1 (100) n (%) | 0 (0) n (%) | 0 (0) n (%) | 0 (0) n (%) | 0 (0) n (%) | 1 (100) n (%) | 0 (0) n (%) | 0 (0) n (%) | 1 (100) n (%) | 0 (0) n (%) | 9 (90) n (%) | isolates S (susceptible), n (%) (P. aeruginosa; [4]): 0 (0) n (%); isolates I (intermediate), n (%) (P. aeruginosa; [5]): 0 (0) n (%); isolates R (resistant), n (%) (P. aeruginosa; [5]): 11 (78.6) n (%); isolates S (susceptible), n (%) (P. aeruginosa; [5]): 0 (0) n (%); isolates I (intermediate), n (%) (A. baumannii): 0 (0) n (%); isolates R (resistant), n (%) (A. baumannii): 0 (0) n (%); isolates S (susceptible), n (%) (A. baumannii): 1 (100) n (%); isolates I (intermediate), n (%) (E. coli): 0 (0) n (%); isolates R (resistant), n (%) (E. coli): 0 (0) n (%); isolates S (susceptible), n (%) (E. coli): 1 (100) n (%)
NCC[C@H](O)C(=O)N[C@@H]1C[C@H](N)[C@@H](O[C@H]2O[C@H](CN)[C@@H](O)[C@H](O)[C@H]2O)[C@H](O)[C@H]1O[C@H]1O[C@H](CO)[C@@H](O)[C@H](N)[C@H]1O [amikacin] | – | – | – | – | – | – | – | – | – | – | – | – | – | – | – | – | – | – | – | – | MIC (K. pneumoniae): 64 µg/mL (≈ 109 µM); MIC (P. aeruginosa; established in 23.3% of isolates, read-out: highest MIC): 128 µg/mL (≈ 219 µM); MIC (A. baumannii): 64 µg/mL (≈ 109 µM)
CC[C@H](C)CCCCC(=O)N[C@@H](CCN)C(=O)N[C@H](C(=O)N[C@@H](CCN)C(=O)N[C@H]1CCNC(=O)[C@H]([C@@H](C)O)NC(=O)[C@H](CCN)NC(=O)[C@H](CCN)NC(=O)[C@H](CC(C)C)NC(=O)[C@@H](CC(C)C)NC(=O)[C@H](CCN)NC1=O)[C@@H](C)O [colistin] (X1-[Dab]T[Dab][Dab][Dab][dL]L[Dab][Dab]T; lactam 4-C) | 1 (100) n (%) | 0 (0) n (%) | 0 (0) n (%) | 1 (33.3) n (%) | 2 (66.7) n (%) | 0 (0) n (%) | 0 (0) n (%) | 0 (0) n (%) | 2 (100) n (%) | 1 (100) n (%) | 0 (0) n (%) | 0 (0) n (%) | 0 (0) n (%) | 0 (0) n (%) | 1 (100) n (%) | 0 (0) n (%) | 1 (100) n (%) | 0 (0) n (%) | 4 (40) n (%) | 4 (40) n (%) | level at 96 h (clinical; favorable clinical outcome n = 34, p = 0.167 vs unfavorable): 160 ng/mL; level at 96 h (clinical; unfavorable clinical outcome n = 23): 540 ng/mL; 30 days mortality, n, % ([1]; high colistin levels n = 2 (>4 µg/mL)): 0 (0%) n, %; 30 days mortality, n, % ([1]; normal colistin levels n = 2 (2 to 4 µg/mL)): 0 (0%) n, %; Favorable clinical outcomes ([1]; patients with colistin levels within the normal range): 50%; Favorable clinical outcomes ([1]; patients with levels above the limit of normality): 50%; Favorable clinical outcomes ([1]; patients with low colistin levels): 60%; isolates S (susceptible), n (%) (P. aeruginosa; [4]): 2 (20) n (%); isolates I (intermediate), n (%) (P. aeruginosa; [5]): 6 (42.8) n (%); isolates R (resistant), n (%) (P. aeruginosa; [5]): 7 (50) n (%); isolates S (susceptible), n (%) (P. aeruginosa; [5]): 1 (7.14) n (%); Acute kidney injury, n, % [2]: 1 (50%) n, %; isolates I (intermediate), n (%) (A. baumannii): 1 (100) n (%); isolates R (resistant), n (%) (A. baumannii): 0 (0) n (%); isolates S (susceptible), n (%) (A. baumannii): 0 (0) n (%); isolates I (intermediate), n (%) (E. coli): 1 (100) n (%); isolates R (resistant), n (%) (E. coli): 0 (0) n (%); isolates S (susceptible), n (%) (E. coli): 0 (0) n (%); calculated volume of distribution [3]: 0.34 L/kg; half-life [3]: 4.18 h
C[C@@H](O)[C@H]1C(=O)N2C(C(=O)O)=C(S[C@@H]3CN[C@H](C(=O)N(C)C)C3)[C@H](C)[C@H]12 [meropenem] | – | – | – | – | – | – | – | – | – | – | – | – | – | – | – | – | – | – | – | – | MIC (K. pneumoniae): 32 µg/mL (≈ 83.4 µM); MIC (P. putida; Pseudomonas putida, broth dilution, one isolate): > 1020 µg/mL; MIC (E. cloacae; Enterobacter cloacae, broth dilution, read-out: highest MIC): 32 µg/mL (≈ 83.4 µM); MIC (P. aeruginosa; found in 56.7% of isolates, 88.2% of which harbored KPC and VIM, read-out: MIC): > 1020 µg/mL; MIC (A. baumannii): 64 µg/mL (≈ 167 µM)
colistimethate sodium [CMS] | – | – | – | – | – | – | – | – | – | – | – | – | – | – | – | – | – | – | – | – | half-life ([3]; in vivo): 2.07 h

Reference: paper PMC8540821, “Estimation of the Difference in Colistin Plasma Levels in Critically Ill Patients with Favorable or Unfavorable Clinical Outcomes” (Pharmaceutics, 2021)
